“Also recorded” adds a separate entry of the source.
Tests used:
[1] = tested on: murine primary osteoblasts; assay: cAMP production in murine primary osteoblasts; assay type: cell-based, mouse; details: confluent cultures, 100 μM IBMX, 5 min treatment; PTH as positive control
Experimental: (§1) Primary osteoblast cultures were established as previously described (see, e.g., Ducy et al., 2000, Cell 100: 197-207) and maintained in αMEM/0.1 mg/ml ascorbic acid supplemented with 10% FBS. SaOS-2 were grown in MEM/10% FBS. For cAMP assay confluent cultures were incubated with serum free medium containing 100 μM IBMX (3-isobutyl-1-methylxanthine, Sigma) for 8 minutes before PBS, PTH(1-34) (Bachem), isoproterenol, norepinephrine, phenylephrine (Sigma) or propranolol were added for 5 min. Intracellular cAMP concentration was measured by immunoassay (R&D Systems). For gene expression analyses, primary osteoblasts were treated for 72 hours with appropriate drugs in 0.1% FBS. Hormone serum levels were quantified using immunoassays kits from Peninsula Laboratories (Insulin) or Alpco Diagnostics (leptin). Deoxypyridinoline cross-links and Creatinine were measured in morning urines using the Quidel kits. a1(I) leptin bioactivity was verified by cotransfection of 293 cells expressing ObRb with a STAT3-responsive-luc reporter construct, pSVβgal plasmid and a1(I) leptin expression vector or mock. Twenty-four hours later luciferase and β-galactosidase activities were measured. Data represents ratios of luciferase/β-galactosidase activities, and values are mean of 6 independent transfection experiments.
For a sympathetic regulation of bone formation to exist several requirements have to be fulfilled. The first one is that functional adrenergic receptors are present on osteoblasts. […] Immunohistochemical analysis of long bones from transgenic mice expressing LacZ under the control of the osteoblast-specific fragment of the a1(I) collagen promoter verified the presence of β2-adrenergic receptors on osteoblasts (FIG. 13B). No other adrenergic receptor subtype could be detected. […] Electron micrographs confirmed the presence of unmyelinated peripheral nerve axons coursing through the marrow adjacent to bone trabeculae and to osteoblasts (FIG. 13E). β-adrenergic receptors are G-coupled receptors that signal through the cAMP pathway (see, e.g., Benovic et al., 1988, Annu Rev Cell Biol 4:405-428). Thus, to assess the biologic relevance of the presence of β2-adrenergic receptors on osteoblasts, these cells were treated with isoproterenol, a β-adrenergic agonist, alone or in the presence of propranolol, a β-adrenergic receptor antagonist; with norepinephrine, the natural ligand of β-adrenergic receptors; with phenylephrine, an α-adrenergic agonist or with vehicle and measured cAMP production. As a positive control, parathyroid hormone (PTH) that binds to another G-coupled receptor present in osteoblasts was used (Gardella & Juppner, 2001, Trends Endocrinol Metab 12:210-217.). […] These effects were abolished by propranolol treatment. […]

[2] = tested on: human SaOS-2 osteoblastic cells; assay: cAMP production in human SaOS-2 osteoblastic cells; assay type: cell-based; details: SaOS-2, 100 μM IBMX, 5 min treatment
Experimental: as §1
For a sympathetic regulation of bone formation to exist several requirements have to be fulfilled. The first one is that functional adrenergic receptors are present on osteoblasts. […] No other adrenergic receptor subtype could be detected. […] Thus, to assess the biologic relevance of the presence of β2-adrenergic receptors on osteoblasts, these cells were treated with isoproterenol, a β-adrenergic agonist, alone or in the presence of propranolol, a β-adrenergic receptor antagonist; with norepinephrine, the natural ligand of β-adrenergic receptors; with phenylephrine, an α-adrenergic agonist or with vehicle and measured cAMP production. […]

wt mice = assay: Long-term isoproterenol treatment of wt mice; assay type: in vivo, mouse
Experimental: (§2) Wildtype (C57BL/6J) and mutant (C57BL/6J A^y/a, C57BL/6J ob/ob) mice were obtained from the Jackson laboratory and adrenal medullectomized mice from Harlan Tecklad laboratory. Dbh−/− mice were rescued as previously described (Thomas et al., 1998, Neurochem 70:2468-2476). Isoproterenol (Sigma) was injected intraperitoneally (ip) once daily for 6 weeks at 30 mg/kg (wt) or 3 mg/kg (ob/ob). Propranolol (Sigma) was added to the drinking water at a concentration of 0.5 g/l. For ICV infusion, a 28-gauge cannula (Brain infusion kit II, Alza) was implanted into the third ventricle as previously described infusing human leptin (Sigma) at 8 ng/hr or MT-II at 125 ng/hr (Phoenix Pharmaceuticals) for 28 days (see, e.g., Ducy et al., 2000, Cell 100: 197-207). The cannula was connected to an osmotic pump (Alza) placed in the dorsal subcutaneous space of the animal. For parabiosis longitudinal incisions were made in the skin and in the peritoneal cavity along one side on each mouse. Edges of the incisions were connected by suture to induce coelioanastomosis. Cross-circulation was quantified by injecting 1 ml/kg 0.25% Evans blue into the tail vein of one mouse of the parabiosed pair. After 30 min. blood was collected from both mice by retroorbital bleeding and the blood exchange rate was calculated according to standard techniques (see, e.g., Harris & Martin, 1984, Am J Physiol 247:R380-386). […] Two weeks after parabiosis a pump delivering leptin ICV in one animal of each pair was implanted. For GTG lesioning, 4-week-old C57BL/6J mice were given a single ip injection of either PBS or GTG (0.5 mg/g). For MSG lesioning, 2 day-old C57BL/6J pups were injected daily subcutaneously with either PBS or MSG (2 mg/g) for 10 days.
Histological analyses were performed on undecalcified sections stained by von Kossa and counterstained by von Gieson (see, e.g., Ducy et al., 2000, Cell 100:197-207). Static and dynamic histomorphometric analyses were performed according to standard protocols (see, e.g., Parfitt et al., 1987, J Bone Miner Res 6:595-610) using the Osteomeasure Analysis System (Osteometrics, Atlanta). Six to 12 animals were analyzed for each group. Statistical significance was assessed by Student's t test.
To address this point one month-old ob/ob mice were treated for 6 weeks with the β-adrenergic agonist isoproterenol or vehicle. […] To determine the role of the SNS in animals that have none of the metabolic and neurological abnormalities caused by leptin deficiency, this experiment was repeated in wt mice.

wildtype mice = assay: Central (ICV) infusion of leptin in wildtype mice; assay type: in vivo, mouse
Experimental: (§3) Wildtype (C57BL/6J) and mutant (C57BL/6J A^y/a, C57BL/6J ob/ob) mice were obtained from the Jackson laboratory and adrenal medullectomized mice from Harlan Tecklad laboratory. Dbh−/− mice were rescued as previously described (Thomas et al., 1998, Neurochem 70:2468-2476). Isoproterenol (Sigma) was injected intraperitoneally (ip) once daily for 6 weeks at 30 mg/kg (wt) or 3 mg/kg (ob/ob). Propranolol (Sigma) was added to the drinking water at a concentration of 0.5 g/l. For ICV infusion, a 28-gauge cannula (Brain infusion kit II, Alza) was implanted into the third ventricle as previously described infusing human leptin (Sigma) at 8 ng/hr or MT-II at 125 ng/hr (Phoenix Pharmaceuticals) for 28 days (see, e.g., Ducy et al., 2000, Cell 100: 197-207). The cannula was connected to an osmotic pump (Alza) placed in the dorsal subcutaneous space of the animal. For parabiosis longitudinal incisions were made in the skin and in the peritoneal cavity along one side on each mouse. Edges of the incisions were connected by suture to induce coelioanastomosis. Cross-circulation was quantified by injecting 1 ml/kg 0.25% Evans blue into the tail vein of one mouse of the parabiosed pair. After 30 min. blood was collected from both mice by retroorbital bleeding and the blood exchange rate was calculated according to standard techniques (see, e.g., Harris & Martin, 1984, Am J Physiol 247:R380-386). […]

A^y/a mice = assay: Leptin ICV infusion in A^y/a mice; assay type: in vivo, mouse
Experimental: as §2

MSG-lesioned ob/ob mice = assay: Leptin ICV infusion in MSG-lesioned ob/ob mice; assay type: in vivo, mouse
Experimental: as §3

Molecule: CC(C)NCC(O)c1ccc(O)c(O)c1 (stereo not shown) [isoproterenol]
- cAMP production [1]: increased
- cAMP production [2]: induced
- expression of uncoupling protein 1 (Ucp1) in brown adipose tissue (wt mice): increased
- bone mass (wt mice; 30 mg/kg ip once daily, 6 weeks): significantly decreased
- body weight (wt mice; 30 mg/kg, 6 weeks): without affecting
- bone formation rate (wt mice; 30 mg/kg, 6 weeks): significantly decreased
- osteoblast number (wt mice; 30 mg/kg, 6 weeks): significantly decreased

B1: leptin: polypeptide hormone, product of the ob gene; human leptin (Sigma) infused ICV (protein)
chain: VPIQKVQDDTKTLIKTIVTRINDISHTQSVSAKQRVTGLDFIPGLHPILSLSKMDQTLAVYQQVLTSLPSQNVLQIANDLENLRDLLHLLAFSKSCSLPQTSGLQKPESLDGVLEASLYSTEVVALSRLQGSLQDILQQLDVSPEC
- bone mass / bone volume and bone formation parameters (wildtype mice): decreased
- body weight (A^y/a mice; ICV infusion): without affecting
- bone formation rate (A^y/a mice; long-term ICV infusion): decrease
- bone mass / bone volume (A^y/a mice; long-term ICV infusion): significant decrease; also recorded: decreased
- Bone Volume (MSG-lesioned ob/ob mice): decreases
- body weight (MSG-lesioned ob/ob mice): does not affect
